# Measurements as given in ChEMBL document CHEMBL1133051, “Design and synthesis of a novel water soluble benzotetrazepinone” (Bioorg Med Chem Lett, 2000).
# pIC50: −log10 of the molar value.
# Tested on: MCF7
# Test: Inhibitory concentration of compound against Mer+ breast tumor cell line MCF-7
# Format: functional, cell-based
# Details: Homo sapiens
row,SMILES,pIC50
1,CN1N=Nc2cc(C(=O)NCCN3CCOCC3)ccc2N(C)C1=O,4.10
2,Cn1nnc2c(C(N)=O)ncn2c1=O [TEMOZOLOMIDE],3.10
